Experimental data published in paper PMC5458052 (Nature Communications, 2017).
Several values for one entry are separate records, joined by “and”; a condition that tells them apart may be missing. Identical values can stand only once. Like-named read-outs stand apart in the source and are kept apart here.

Key:
[1] = system: P. falciparum clinical field isolates; assay: microbe, parasite or virus in culture; assay type: cell-based; settings: Plasmodium falciparum, read-out: Median IC50
[2] = system: P. falciparum lab lines FC27 and K1; assay: microbe, parasite or virus in culture; assay type: cell-based; settings: Plasmodium falciparum, median of 3 independent experiments
[3] = system: P. vivax clinical field isolates; assay: microbe, parasite or virus in culture; assay type: cell-based; settings: Plasmodium vivax, read-out: Median IC50
[4] = Metabolic stability and metabolite profile in mouse liver microsomes; assay type: in vitro ADME; settings: for Relative Peak Area (expressed as % total metabolite peak area generated over 60 minutes): metabolite of E209, mouse liver microsomes with NADPH; for Degradation half-life / In vitro CLint / Microsome-Predicted EH: mouse liver microsomes
[5] = Metabolic stability and metabolite profile in rat liver microsomes; assay type: in vitro ADME; settings: for Relative Peak Area (expressed as % total metabolite peak area generated over 60 minutes): metabolite of E209, rat liver microsomes with NADPH; for Degradation half-life / In vitro CLint / Microsome-Predicted EH: rat liver microsomes
[6] = Metabolic stability and metabolite profile in human liver microsomes; settings: for Relative Peak Area (expressed as % total metabolite peak area generated over 60 minutes): metabolite of E209, human liver microsomes with NADPH; for In vitro CLint / Microsome-Predicted EH / Degradation half-life: human liver microsomes
[7] = Solubility at 37°C over a 6 hour incubation; assay type: physicochemical; settings: free base equivalent
[8] = system: African variant G6PD deficient human red blood cells (huRBC); settings: 7 days post-treatment; E209 up to 50 mg kg^−1 day^−1 for 3 days; PQ 25 mg/kg/day for 3 days
P. berghei [9] = system: P. berghei; parameters: species or system Plasmodium berghei
[10] = In vitro intrinsic clearance, rat liver microsomes (Chem Partners); assay type: in vitro ADME; settings: rat (R) liver microsomes
[11] = In vitro intrinsic clearance, human liver microsomes (Chem Partners); assay type: in vitro ADME; settings: human (H) liver microsomes
[12] = Rat PK iv 1 mg/kg (Chem Partners); settings: in vivo
[13] = Rat blood stability in vitro; settings: male, Sprague Dawley, freshly collected whole blood
P. falciparum 3D7 = assay: In vitro antimalarial activity, drug sensitivity testing (3D7); assay type: cell-based; settings: Plasmodium falciparum
[14] = system: P. falciparum strains (sensitive and resistant); assay: microbe, parasite or virus in culture; assay type: cell-based; settings: Plasmodium falciparum, mean ± SD n=3
[15] = system: P. falciparum strain 3D7A; parameters: method as in PMID 22383983; settings: cited from earlier work
P. berghei [16] = system: P. berghei; parameters: method as in Charman et al. 12; settings: ref Charman et al. 12, cited from earlier work
[17] = Mammalian cell cytotoxicity; assay type: cell-based; settings: human; HeLa cells, n=3; read-out: cytotoxicity median IC50
[18] = 10 × IC50, previous results on standard anti-malarials

## OC(c1cc(C(F)(F)F)nc2c(C(F)(F)F)cccc12)C1CCCCN1 (stereo not shown) [Mefloquine, mefloquine]
[1]
  IC50: 12.7 nM
[2]; K1, FC27 (CQ S) lab line
  IC50: 56.2 nM
[3]
  IC50: 18 nM

## O=C1CCC(c2ccc(OCCN3CCC(F)CC3)cc2)CC1 [Compound M-182]
[4]
  Relative Peak Area (expressed as % total metabolite peak area generated over 60 minutes): 27%
[5]
  Relative Peak Area (expressed as % total metabolite peak area generated over 60 minutes): 13%
[6]
  Relative Peak Area (expressed as % total metabolite peak area generated over 60 minutes): 11%

## CS(=O)(=O)O.c1cc(C2CCC3(CC2)OOC2(OO3)C3CC4CC(C3)CC2C4)ccc1CN1CCOCC1 (stereo not shown) [N205 mesylate]
[7]; 0.01 N HCl, media pH 2.0, 37°C, 1 h
  Solubility: 250 µg/mL
[7]; 0.01 N HCl, media pH 2.0, 37°C, 4 h
  Solubility: 172 µg/mL
[7]; 0.01 N HCl, media pH 2.0, 37°C, 6 h
  Solubility: 155 µg/mL
[7]; 0.1 N HCl, media pH 1.0, 37°C, 1 h
  Solubility: 21.2 µg/mL
[7]; 0.1 N HCl, media pH 1.0, 37°C, 4 h
  Solubility: 17.2 µg/mL
[7]; 0.1 N HCl, media pH 1.0, 37°C, 6 h
  Solubility: 16.0 µg/mL
[7]; FaSSIF blank, 37°C, 1 h
  Solubility: < 0.1 µg/mL
[7]; FaSSIF blank, 37°C, 4 h
  Solubility: < 0.1 µg/mL
[7]; FaSSIF blank, 37°C, 6 h
  Solubility: < 0.1 µg/mL
[7]; FaSSIF, media pH 6.5, 37°C, 1 h
  Solubility: 24.0 µg/mL
[7]; FaSSIF, media pH 6.5, 37°C, 4 h
  Solubility: 18.1 µg/mL
[7]; FaSSIF, media pH 6.5, 37°C, 6 h
  Solubility: 26.7 µg/mL
[7]; FeSSIF blank, 37°C, 1 h
  Solubility: 2.3 µg/mL
[7]; FeSSIF blank, 37°C, 4 h
  Solubility: 0.9 µg/mL
[7]; FeSSIF blank, 37°C, 6 h
  Solubility: 1.2 µg/mL
[7]; FeSSIF, media pH 5.0, 37°C, 1 h
  Solubility: 1089 µg/mL
[7]; FeSSIF, media pH 5.0, 37°C, 4 h
  Solubility: 755 µg/mL
[7]; FeSSIF, media pH 5.0, 37°C, 6 h
  Solubility: 783 µg/mL
[7]; Phosphate buffer, media pH 7.4, 37°C, 1 h
  Solubility: < 0.1 µg/mL
[7]; Phosphate buffer, media pH 7.4, 37°C, 4 h
  Solubility: < 0.1 µg/mL
[7]; Phosphate buffer, media pH 7.4, 37°C, 6 h
  Solubility: < 0.1 µg/mL

## c1cc(C2CCC3(CC2)OOC2(OO3)C3CC4CC(C3)CC2C4)ccc1CN1CCOCC1 (stereo not shown) [Compound N205]
[4]; substrate 1 µM
  Degradation half-life: 0.8 h
  In vitro CLint: 37 µL/min/mg protein
  Microsome-Predicted EH: 0.44
[4]; substrate 5 µM
  Degradation half-life: 1.45 h
  In vitro CLint: 20 µL/min/mg protein
  Microsome-Predicted EH: 0.30
[5]; substrate 1 µM
  Degradation half-life: 0.25 h
  In vitro CLint: 118 µL/min/mg protein
  Microsome-Predicted EH: 0.75
[5]; substrate 5 µM
  Degradation half-life: 0.333 h
  In vitro CLint: 89 µL/min/mg protein
  Microsome-Predicted EH: 0.69
[6]; substrate 1 µM
  In vitro CLint: 51 µL/min/mg protein
  Microsome-Predicted EH: 0.67
[6]; substrate 1 µM, NADPH-dependent
  Degradation half-life: 0.567 h
[6]; substrate 5 µM
  Degradation half-life: 0.717 h
  In vitro CLint: 41 µL/min/mg protein
  Microsome-Predicted EH: 0.62

## COc1cc(NC(C)CCCN)c2ncccc2c1 (stereo not shown) [primaquine, reference compound]
[8]
  loss of huRBC: induced significant loss of huRBC

## c1cc(C2CCC3(CC2)OOC2(OO3)C3CC4CC(C3)CC2C4)ccc1OCCCN1CCOCC1 (stereo not shown) [Compound 5]
P. berghei [9]
  In vivo (Pb) MSD (days) at 1 x 30 mg/kg: 16 days
[10]
  CLint scaled: 75 mL/min/kg
[11]
  CLint scaled: 147 mL/min/kg
[12]
  clearance: 6.5 mL/min/kg
  half-life: 1.5 h
[13]
  half-life at 1 µM: 15 h
P. falciparum 3D7
  IC50: 7.5 ± 0.2 nM

## CCN(CC)CCCC(C)Nc1ccnc2cc(Cl)ccc12 (stereo not shown) [Chloroquine, chloroquine]
[1]
  IC50: 85.5 nM
[14]; DD2, strain Dd2 (chloroquine resistant)
  IC50: 150 ± 25.7 nM
[14]; HB3, strain HB3 (chloroquine sensitive)
  IC50: 9 ± 1.5 nM
[14]; NF54, strain NF54 (chloroquine sensitive)
  IC50: 5.9 ± 1 nM
[14]; TM90C2B, strain TM90C2B (chloroquine resistant)
  IC50: 121 ± 20.6 nM
[14]; strain 7G8 (chloroquine resistant)
  IC50: 55 ± 9.4 nM
[14]; strain D6 (chloroquine sensitive)
  IC50: 8.6 ± 1.5 nM
[14]; strain FCB (chloroquine resistant)
  IC50: 66 ± 11.3 nM
[14]; strain K1 (chloroquine resistant)
  IC50: 173 ± 29.5 nM
[14]; strain V1/S (chloroquine resistant)
  IC50: 194 ± 33 nM
[2]; K1, K1 (CQ R) lab line
  IC50: 212 nM
[3]
  IC50: 147 nM
[15]
  Lag phase: 0 h
  PCT 99.9 %: 34 h
  Slope: −0.094

## CCN(CC)Cc1cc(Nc2ccnc3cc(Cl)ccc23)ccc1O [Amodiaquine, amodiaquine]
[1]
  IC50: 25.6 nM
[2]; K1, FC27 (CQ S) lab line
  IC50: 33.1 nM
[2]; K1, K1 (CQ R) lab line
  IC50: 39.3 nM
[3]
  IC50: 50.6 nM

## CS(=O)(=O)N1CCN(CCOc2ccc(C3CCC4(CC3)OOC3(OO4)C4CC5CC(C4)CC3C5)cc2)CC1 (stereo not shown) [Compound 6]
P. berghei [9]
  In vivo (Pb) MSD (days) at 1 x 30 mg/kg: 19 days and 19.3 (14, 30,14) days
[10]
  CLint scaled: 38 mL/min/kg
[11]
  CLint scaled: 257 mL/min/kg
[12]
  clearance: 3.5 mL/min/kg
  half-life: 3.2 h
[13]
  half-life at 1 µM: 12 h
P. falciparum 3D7
  IC50: 3.5 ± 0.2 nM

## CS(=O)(=O)N1CCN(CCCOc2ccc(C3CCC4(CC3)OOC3(OO4)C4CC5CC(C4)CC3C5)cc2)CC1 (stereo not shown) [Compound 7]
P. berghei [9]
  In vivo (Pb) MSD (days) at 1 x 30 mg/kg: 14 (14, 14, 14) days
[10]
  CLint scaled: 29 mL/min/kg
[11]
  CLint scaled: 238 mL/min/kg
[12]
  clearance: 3.5 mL/min/kg
  half-life: 3.2 h
[13]
  half-life at 1 µM: 15 h
P. falciparum 3D7
  IC50: 3.7 ± 0.1 nM

## c1cc([C@H]2CC[C@]3(CC2)OO[C@]2(O3)C3CC4CC(C3)CC2C4)ccc1OCCN1CCOCC1 [OZ439]
P. berghei [16]; animals cured of n=3, single oral dose 30 mg/kg
  cures: 3
P. berghei [16]; single oral dose 30 mg kg^-1, P. berghei infected mice
  In vivo (Pb) MSD (days) at 1 x 30 mg/kg: 30 days
P. falciparum 3D7
  IC50: 5.1 ± 0.81 nM

## FC1(F)CCN(CCOc2ccc(C3CCC4(CC3)OOC3(OO4)C4CC5CC(C4)CC3C5)cc2)CC1 (stereo not shown) [Compound 8]
[10]
  CLint scaled: 60 mL/min/kg
[11]
  CLint scaled: 107 mL/min/kg
[12]
  clearance: 1.3 mL/min/kg
  half-life: 2.8 h
[13]
  half-life at 1 µM: 16 h
P. falciparum 3D7
  IC50: 8.5 ± 0.6 nM

## c1cc(C2CCC3(CC2)OOC2(OO3)C3CC4CC(C3)CC2C4)ccc1OCCN1CCOCC1 (stereo not shown) [Compound 4]
[10]
  CLint scaled: 86 mL/min/kg
[11]
  CLint scaled: 135 mL/min/kg
[12]
  clearance: 7.1 mL/min/kg
  half-life: 1.1 h
[13]
  half-life at 1 µM: 14 h
P. falciparum 3D7
  IC50: 10 ± 1 nM

## Clc1ccc2c(N3CCN(CCCN4CCN(c5ccnc6cc(Cl)ccc56)CC4)CC3)ccnc2c1 [Piperaquine, piperaquine]
[1]
  IC50: 35.6 nM
[2]; K1, FC27 (CQ S) lab line
  IC50: 54.6 nM
[2]; K1, K1 (CQ R) lab line
  IC50: 75.5 nM
[3]
  IC50: 33.8 nM

## C[C@@H]1CC[C@H]2[C@@H](C)C(=O)O[C@@H]3O[C@@]4(C)CC[C@@H]1[C@]32OO4 [Artemisinin, artemisinin]
[15]
  Lag phase: 0 h
  Log PRR: > 4.8
  PCT 99.9 %: < 24 h
  Slope: −0.101

## OC1CCC(c2ccc(OCCN3CCC(F)CC3)cc2)CC1 (stereo not shown) [Compound M-180]
[4]
  Relative Peak Area (expressed as % total metabolite peak area generated over 60 minutes): 20%
[5]
  Relative Peak Area (expressed as % total metabolite peak area generated over 60 minutes): 9%
[6]
  Relative Peak Area (expressed as % total metabolite peak area generated over 60 minutes): 10%

## [O-][N+]1(CCOc2ccc(C3CCC4(CC3)OOC3(OO4)C4CC5CC(C4)CC3C5)cc2)CCC(F)CC1 (stereo not shown) [M+16 (IV)]
[4]
  Relative Peak Area (expressed as % total metabolite peak area generated over 60 minutes): 9%
[5]
  Relative Peak Area (expressed as % total metabolite peak area generated over 60 minutes): 50%
[6]
  Relative Peak Area (expressed as % total metabolite peak area generated over 60 minutes): 4%

## CCc1nc(N)nc(N)c1-c1ccc(Cl)cc1 [Pyrimethamine, pyrimethamine]
[15]; [18]
  Lag phase: 24 h
  Log PRR: 3.7
  PCT 99.9 %: 57 h
  Slope: −0.077

## O=C1C(O)=C([C@H]2CC[C@H](c3ccc(Cl)cc3)CC2)C(=O)c2ccccc21 [Atovaquone, atovaquone]
[15]; [18]
  Lag phase: 48 h
  Log PRR: 2.9
  PCT 99.9 %: 81 h
  Slope: −0.060

## C[C@H]1[C@@H](O)O[C@@H]2O[C@@]3(C)CC[C@H]4[C@H](C)CC[C@@H]1[C@@]24OO3 [DHA, dihydroartemisinin, reference compound]
[17]
  IC50: 400 nM
